In brackets after ≈: the same amount, converted by molar mass.
Legend:
Assay type in all cases: functional, cell-based
[1] = test system: HL-60; assay: Induction of apoptosis in human HL60 cells assessed as increase in caspase3 activity
[2] = test system: KB; assay: Cytotoxicity against human KB cells
[3] = test system: L1210; assay: Cytotoxicity against mouse L1210 cells

For CCCCCCCCCCCCCCC[C@H](OC(=O)[C@@H](CCCCN(O)C=O)NC(=O)[C@H]1COC(c2ccccc2O)=N1)[C@@H](C)C(=O)N[C@@H]1CCCCN(O)C1=O [BRASILIBACTIN A], which Activity [1] is on record?
Its Activity is “Dose-dependent effect”.

And the IC50 [2]?
Its IC50 is 0.04 µg/mL (≈ 0.0499 µM).

And the IC50 [3]?
Its IC50 is 0.02 µg/mL (≈ 0.0249 µM).
